According to patent US20260272998A1, “CHEMICALLY-MODIFIED MICROORGANISM CONTAINING A SUPEROXIDE DISMUTASE MIMIC INORGANIC COMPLEX AND USE THEREOF FOR TREATING INFLAMMATORY DISEASES” (INSTITUT NATIONAL DE RECHERCHE POUR L'AGRICULTURE, …, priority 2023, published 2026):
“Also recorded” adds a separate entry of the source.

Legend:
[1] = system: Lactobacillus plantarum MD007 strain
Procedure: The Lactobacillus plantarum MD007 strain is grown in MRS containing D-alanine (200 μg/mL) at 37° C.
An overnight culture is used to inoculate fresh medium in order to get an OD600 nm of 0.2, and cells are grown to an OD600 nm of 0.7 and are washed three times D-alanine free MRS medium. The washed bacteria are incubated in medium without D-alanine for 3 h at 37° C. before SOD mimic loading. After alanine starvation, the bacteria are washed three times with Hepes (0.1 M, pH 7.4) to reach a concentration about 10^9 bacteria per 200 μL.
After removal of the culture medium supernatant, bacteria are incubated with Hepes (0.1 M, pH 7.4) only, or with the tested compounds (Mn1 or Mn1C) at the desired concentration in the same buffer for two or twenty-four hours, at 37° C. Mn1C, Mn1 solutions are prepared extemporaneously to prevent degradation and manganese oxidation reactions. After cultures centrifugation and washing with Hepes (0.1 M, pH 7.4), the bacteria are resuspended in Hepes 0.1 M containing 16% glycerol to reach a concentration about 10^9 bacteria per 200 μL. […]
To assess bacteria viability, the overnight culture and the frozen vials are controlled by CFU (colony forming unit) test by diluting the preparation in PBS by serial 1/10 dilution and plating a known volume of the dilutions on the corresponding medium. […] Colonies are then counted by visual observation.

[2] = McCord and Fridovich assay; cited from earlier work
[3] = system: DBNS-induced colitis murine model; conditions: administered orally in a carbonate buffer; cited from earlier work
[4] = system: intestinal epithelial cells and macrophages; conditions: cited from earlier work

In the case of `Cn1ccnc1CNCCN(Cc1ccccc1O)Cc1nccn1C.[Mn+2]` [Mn1], the “cell viability of loaded bacteria (CFU)” value [1] is given as “does not affect cell viability”, the “kcat for superoxide dismutation” value [2] is given as 7.10^6 M^−1·s^−1 and the “anti-inflammatory activity in DNBS-induced colitis (weight variation, macroscopic scores)” value [3] is given as “exert an intracellular anti-inflammatory activity in vivo; also recorded: ameliorates DNBS-induced colitis”. The “antioxidant and anti-inflammatory effects on cells” value [4] was “antioxidant and anti-inflammatory effects”.
